# Key:
# [1] = molecular target: T1, Bifunctional dihydrofolate reductase-thymidylate synthase (Toxoplasma gondii, UniProt Q07422); experiment: Inhibition of Toxoplasma gondii TS-DHFR expressed in Escherichia coli BL21 preincubated for 15 mins followed by addition of DHF as substrate and NADPH measured after 60 mins by resazurin/diaphorase coupled assay; type: cell-free
# T1 sequence (Q07422 whole entry): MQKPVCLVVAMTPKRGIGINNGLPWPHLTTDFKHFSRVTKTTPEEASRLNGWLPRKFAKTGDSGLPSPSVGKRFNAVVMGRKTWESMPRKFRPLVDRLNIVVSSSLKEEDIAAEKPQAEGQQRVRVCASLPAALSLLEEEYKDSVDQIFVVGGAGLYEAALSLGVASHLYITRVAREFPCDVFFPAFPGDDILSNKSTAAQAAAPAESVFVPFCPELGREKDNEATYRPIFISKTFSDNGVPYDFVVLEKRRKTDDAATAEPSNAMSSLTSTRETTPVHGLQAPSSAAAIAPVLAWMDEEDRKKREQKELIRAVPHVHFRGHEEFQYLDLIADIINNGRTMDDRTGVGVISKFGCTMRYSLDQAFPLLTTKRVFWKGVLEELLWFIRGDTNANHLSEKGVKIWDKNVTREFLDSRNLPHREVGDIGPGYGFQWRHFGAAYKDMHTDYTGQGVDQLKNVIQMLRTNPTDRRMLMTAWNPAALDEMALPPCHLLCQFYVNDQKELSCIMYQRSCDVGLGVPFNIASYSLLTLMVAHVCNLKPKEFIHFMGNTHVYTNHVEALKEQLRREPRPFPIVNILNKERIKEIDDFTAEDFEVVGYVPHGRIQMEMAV
# Dihydrofolate reductase = molecular target: T2, Dihydrofolate reductase (Homo sapiens, UniProt P00374); experiment: Inhibition of recombinant human DHFR expressed in Escherichia coli preincubated for 15 mins followed by addition of DHF as substrate and NADPH measured after 60 mins by resazurin/diaphorase coupled assay
# T2 sequence (P00374 whole entry): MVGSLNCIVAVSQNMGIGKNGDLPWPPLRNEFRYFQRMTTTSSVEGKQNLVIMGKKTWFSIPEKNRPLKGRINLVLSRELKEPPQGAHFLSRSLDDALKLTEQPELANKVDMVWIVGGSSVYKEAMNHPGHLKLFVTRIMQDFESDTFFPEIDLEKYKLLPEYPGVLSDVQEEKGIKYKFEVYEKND
# [2] = Selectivity ratio of IC50 for human DHFR to IC50 for Toxoplasma gondii DHFR
SMILES,IC50 (Dihydrofolate reductase),IC50 [1],Ratio IC50 [2]
Nc1ncc(Cn2ccc3c(-c4ccc(C(F)(F)F)cc4)cccc32)c(N)n1,> 10 µM,2.7 µM,> 3.5
Nc1nc(Cl)c2cc(-c3cccc(Cl)c3)[nH]c2n1,4.2 µM,> 10 µM,< 1
Nc1ncc(CN2CCN(c3cccc(C(F)(F)F)c3)CC2)c(N)n1,9.2 µM,80 µM,0.12
Nc1ncc(CN2CCN(c3cc(Cl)ccc3OCc3cccc(C(F)(F)F)c3)CC2)c(N)n1,> 75 µM,0.95 µM,> 80
Nc1ncc(Cn2cc(-c3cccc(Cl)c3)c3cccnc32)c(N)n1,> 10 µM,> 10 µM,
Nc1ncc(N2CCN(c3ccc(Cl)c(Cl)c3)CC2)c(N)n1,0.092 µM,0.017 µM,10
Cc1nc(N)nc(N)c1C(=O)N1CCN(c2cccc(-c3ccccc3)c2)CC1,> 10 µM,2.4 µM,> 4
Cc1nc(N)nc(N)c1CN1CCN(c2cccc(-c3cccc(C#N)c3)c2)CC1,0.92 µM,0.2 µM,4.7
Nc1ncc(Cn2cc(-c3cccc(C(F)(F)F)c3)c3ccccc32)c(N)n1,> 10 µM,0.98 µM,> 10
Cn1c(-c2cccc(Cl)c2)cc2c(N)nc(N)nc21,> 10 µM,> 10 µM,

# Continued, in another order:
IC50 (Dihydrofolate reductase),SMILES,IC50 [1],Ratio IC50 [2]
2.8 µM,Cn1cc(-c2c(N)nc(N)nc2C2CC2)c2ccccc21,0.46 µM,6.1
> 10 µM,Cn1c(-c2cccc(Cl)c2)cc2c(Cl)nc(N)nc21,> 10 µM,
> 10 µM,Nc1nc2[nH]c(-c3cccc(Cl)c3)cc2c(=O)[nH]1,> 10 µM,
> 10 µM,Cc1nc(N)nc(N)c1C(=O)N1CCN(c2cc(Cl)ccc2-c2ccccn2)CC1,> 10 µM,
1.1 µM,Cc1nc(N)nc(N)c1CN1CCN(c2cccc(-c3ccccc3)c2)CC1,1.1 µM,1
2.5 µM,Nc1nc(N)c(-c2c[nH]c3ccccc23)c(C2CC2)n1,0.91 µM,2.9
> 10 µM,Cc1nc(N)nc(N)c1C(=O)N1CCN(c2cccc(-c3cccc(C#N)c3)c2)CC1,3 µM,> 3.3
> 10 µM,Nc1ncc(Cn2cc(-c3ccc(F)c(F)c3)c3cnccc32)c(N)n1,> 10 µM,
2.1 µM,Cc1nc(N)nc(N)c1CN1CCN(c2cc(Cl)ccc2-c2ccccn2)CC1,0.37 µM,6.5
> 10 µM,COc1ccc(-c2c[nH]c3nc(N)nc(OC(C)C)c23)cc1C(F)(F)F,> 10 µM,
> 10 µM,Nc1ncc(CN2CCCN(C(=O)c3cccc(C(F)(F)F)c3)CC2)c(N)n1,> 10 µM,

# — ChEMBL document CHEMBL3865850, “Discovery of Potent and Selective Leads against Toxoplasma gondii Dihydrofolate Reductase via Structure-Based Design” (ACS Med Chem Lett, 2016)
